Structures are written as SMILES. Active and inactive are the calls of the source. No cut-off for these calls is given here.

The subject of series [1] is MC3T3-E1. The series is described as follows: Induction of cells differentiation in mouse MC3T3-E1 cells assessed as increase in osteocalcin production after 14 days by EIA. Type of series: functional, cell-based.
Series [2] deals with MC3T3-E1. The series can be described thus: Induction of osteogenesis in mouse MC3T3-E1 cells assessed as cell differentiation at 30 uM after 6 days by alkaline phosphatase activity assay. Format: functional, cell-based.
Series [3] in a line: Cytotoxicity against mouse MC3T3-E1 cells at 30 uM after 6 days. Format: cell-based. The note with it: mc3t3-e1, 144 h.
In series [4] the test system is MC3T3-E1. The series is described as follows: Induction of cells differentiation in mouse MC3T3-E1 cells assessed as increase in mineralization after 14 days by Alizarin Red S staining. Format: functional, cell-based.
The test system of series [5] is RAW264. The series is described as follows: Induction of osteoclast differentiation in mouse RAW264 cells assessed as TRAP activity. Format: functional, cell-based.
Series [6] concerns MC3T3-E1. The series is described as follows: Induction of osteogenesis in mouse MC3T3-E1 cells assessed as increase in alkaline phosphatase activity after 6 days. Format: functional, cell-based.
For series [7], the species on record is Mus musculus. The series is described as follows: Induction of osteogenesis in mouse primary calvarial cells assessed as increase in alkaline phosphatase activity measured by ALP staining after 14 days. Type of series: functional.
Series [8] has as its system MC3T3-E1. The series can be described thus: Induction of osteogenesis in mouse MC3T3-E1 cells assessed as increase in alkaline phosphatase activity at 30 uM after 6 days in presence of 50 ng/ml noggin BMP antagonist. Type of series: functional, cell-based.
For series [9], the system named is MC3T3-E1. The series can be described thus: Induction of osteogenesis in mouse MC3T3-E1 cells assessed as increase in alkaline phosphatase activity at 30 uM after 6 days in presence of 0.1 uM LDN-193289 BMP receptor kinase inhibitor. Format: functional, cell-based.
Series [10] concerns MC3T3-E1. The series can be described thus: Induction of osteogenesis in mouse MC3T3-E1 cells assessed as increase in alkaline phosphatase activity at 30 uM after 6 days in presence of 5 uM SB203580 p38 MAPK inhibitor. Format: functional, cell-based.

As for `OC[C@H]1O[C@@H](Oc2ccc3cc2Oc2ccc(cc2)CCCC[C@@H](O)CC3)[C@H](O)[C@@H](O)[C@@H]1O` [ACEROSIDE B1], the result in series [1] and in [2] was Active. Also, the Activity entry in [3] is “Non-toxic”; in [4], “Dose-dependent effect”. Also, the result in [5] was inactive.

As for `Oc1ccc2cc1Oc1ccc(cc1)CC[C@H](O)CCCC2` [ACEROGENIN A], the outcome in series [1], in [2] and in [7] was Active. The Activity result in series [3] is “Non-toxic”; in [6], “Dose-dependent effect”; in [4], “Dose-dependent effect”. The outcome in [8], in [9], in series [10] and in series [5] was inactive.

For `Oc1ccc(CCCC[C@@H](O)CCc2ccc(O)cc2)cc1`, the Activity result in series [3] is recorded as “Toxic”. Further, in series [5], the result was inactive.

In the case of `Oc1ccc2cc1Oc1ccc(cc1)CCCC[C@@H](O)CC2`, the result in series [1] and in series [2] was Active. Moreover, the results for the Activity result in [3] and in series [4] were “Non-toxic” and “Dose-dependent effect”, respectively. Further, the outcome in series [5] was inactive.

Turning to `Oc1cc(O)c2c(c1)O[C@H](c1ccc(O)c(O)c1)[C@@H](O)C2` [CIANIDANOL], the Activity entry in series [3] is recorded as “Non-toxic”. Further, in series [5], the result was inactive.

Consider `OC[C@H]1O[C@H](Oc2ccc3cc2Oc2ccc(cc2)CC[C@@H](O)CCCC3)[C@H](O)[C@@H](O)[C@@H]1O` [ACEROSIDE I], for which the result in series [1] and in [2] was Active. Further, the Activity entry in series [3] is “Non-toxic”; in [4], “Dose-dependent effect”. For the same molecule, the result in [5] was inactive.

With `OC[C@@]1(O)CO[C@@H](OC[C@H]2O[C@@H](O[C@@H]3CCCCc4ccc(O)c(c4)Oc4ccc(cc4)CC3)[C@H](O)[C@@H](O)[C@@H]2O)[C@@H]1O` [ACEROSIDE III], in series [2], the result was Active. The Activity entry in series [3] was “Non-toxic”. Also, the outcome in series [5] was inactive.

On to `C[C@H](O)CCc1ccc(O)cc1`, for which the result in series [2] and in series [5] was inactive. Also, in [3], the Activity entry is reported as “Non-toxic”.

For the origin of these results see ChEMBL document CHEMBL1777809, “Osteogenic activity of diphenyl ether-type cyclic diarylheptanoids derived from Acer nikoense” (Bioorg Med Chem Lett, 2011).
